Results as given in paper PMC11971462, “Generation and validation of a novel multitarget small molecule in glioblastoma” (Cell Death & Disease, 2025).

Columns and labels:
[1] = tested on: U87-MG cells; test: Subcutaneous U87-MG tumor growth, combined treatment with TMZ; type: in vivo, athymic nude-Foxn1nu mice; conditions: end-point, controls 600 mm^3
Experimental: (§1) For tumor growth experiments, 5 × 10^5 U87-MG cells were subcutaneously injected into two bottom flanks of athymic nude-Foxn1^nu mice, and once tumors reached a size of 25-50 mm^3, mice were sorted into groups taking into account gender and tumor size. Afterwards, mice were intratumorally treated with vehicle, SAHA 100 µM or DDI199 100 µM following a schedule of 5 days on and 2 days off. In combined treatment, mice were treated intraperitoneally with 0.5 mg/Kg of TMZ for 5 days and intratumorally following a schedule of 5 days on and 2 days off with vehicle, SAHA 100 µM or DDI199 100 µM. After 4 weeks of treatment, some mice were kept for washout experiment, while the rest were sacrificed and tumors were extracted for immunohistochemistry and to disaggregate for reinjection and oncosphere formation studies. For reinjection assays, 1.5 × 10^5 cells were subcutaneously injected and tumor size was periodically measured. Once tumors reached end-point criteria, they were extracted for immunohistochemical analysis. An external caliper was used for tumor size measurement and the tumor volume was estimated using the formula V = L · W^2 · 0.5 (where L is tumor length and W is the tumor width).

[2] = tested on: U87-MG cells; test: Cell viability with TMZ and DDI199 alone or combined; type: cell-based, human; conditions: 72 h, 250 µM TMZ or 0.5 µM DDI199 alone
Experimental: MTT assay was used to study cell viability. For that, cells were seeded at a density of 1.5 × 10^3 cells/well in 96-well plates, incubated overnight and then treated with increasing concentrations of DDI199. After 72 h of treatment, MTT absorbance was measured at 570 nm. GraphPad Prism software was used to analyze results and calculate IC50 values.

[3] = tested on: U87-MG cells; test: Washout experiment after treatment; type: in vivo, athymic nude-Foxn1nu mice; conditions: after 4 weeks treatment; controls 10 days
Experimental: as §1

[4] = tested on: U87-MG cells; test: Subcutaneous U87-MG tumor growth, single treatment; type: in vivo, athymic nude-Foxn1nu mice; conditions: day 34, 100 µM intratumoral, 5 days on 2 days off; controls 800 mm^3
Experimental: as §1

Structure (SMILES): Cn1nnc2c(C(N)=O)ncn2c1=O [TMZ, temozolomide, reference compound]
- Mean tumor volume, TMZ alone ([1]; TMZ 0.5 mg/kg ip 5 days): 400 mm^3
- Cell viability, single agent [2]: reduced cell viability

Structure (SMILES): O=C(CCCCCCC(=O)Nc1ccccc1)NO [SAHA, Vorinostat, reference compound]
- Time to end-point volume after washout [3]: 10 days
- Mean final tumor volume [4]: 550 mm^3
- Mean tumor volume, combined with TMZ ([1]; TMZ 0.5 mg/kg ip 5 days + 100 µM intratumoral): 355 mm^3
